From PubChem BioAssay (NCI) come the findings set out here.

What all share (assay): growth of human tumour cells (NCI), 48 h
The subject of assay [1] is CCRF-CEM leukemia.
The test system of assay [2] is HOP-92 NSCLC.
For assay [3], the system named is NCI-H23 lung.
Assay [4] relates to NCI-H522 lung.
Assay [5] has as its system OVCAR-8 ovarian.
In assay [6] the test system is SF-295 CNS.
Assay [7] relates to SK-MEL-2 melanoma.
For assay [8], the system named is SNB-75 CNS.
In assay [9] the test system is SW-620 colon.
For assay [10], the system named is U251 CNS.

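Each compound was tested at five concentrations against cells in 96-well plates for 48 hours. GI50: concentration for 50% inhibition of growth. TGI: concentration producing complete growth inhibition.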

For `COc1cc(-c2cc(=O)c3cc4c(cc3[nH]2)OCO4)cc(OC)c1OC`, the TGI in [1] was > 100 µM; in assay [2], 69 µM; in [3], > 100 µM; in assay [4], > 100 µM; in assay [5], > 100 µM; in assay [6], 97.9 µM. Moreover, the TGI in assay [7], in [8], in assay [9] and in assay [10] was > 100 µM each time. Further, the GI50 in assay [6] is 32 µM.
For the molecule `CCOc1ccc(/C=C/C(=O)c2ccccc2)cc1`, the GI50 in [1] was 17.9 µM; in [2] it was 19.6 µM; in assay [3] it was 16.9 µM; in assay [4] it was 15.4 µM; in [5] it was 14.8 µM; in assay [6], 16.8 µM. Besides, the GI50 in assay [7] was 20.4 µM; in assay [8], 22.4 µM; in assay [9], 7.73 µM; in assay [10], 7.19 µM. Besides, the TGI worked out at 62.4 µM in assay [1]; 41.2 µM in assay [2]; 37.2 µM in assay [3]; 34.9 µM in assay [4]; 34.6 µM in assay [5]; 35 µM in assay [6]. Further, the TGI in assay [7] was found to be 38.2 µM; in assay [8] it was 51.4 µM; in assay [9] it was 21.1 µM; in assay [10] it was 20.7 µM.
On to `O=C(Nc1ccccc1C(F)(F)F)c1cccc(NC2=C(Cl)C(=O)N(Cc3ccccc3)C2=O)c1`, for which the GI50 was 10.4 µM in [1]; 26.3 µM in [2]; 19.2 µM in [3]; 42.3 µM in assay [5]; > 19.9 µM in assay [6]; 14.9 µM in [7]. Also, the values for the GI50 in assay [8], in assay [9] and in assay [10] were 30.7 µM, 22 µM and 6.68 µM, respectively. Also, the TGI in assay [1] is 31.7 µM; in assay [2], > 100 µM; in assay [3], 62.5 µM; in [4], 0.0672 µM; in [5] it was > 72.1 µM; in assay [6] it was > 45.5 µM. Besides, the TGI in assay [7] was 79 µM; in [8] it was > 57.6 µM; in assay [9], > 100 µM; in assay [10], 41.7 µM.
For the molecule `COc1ccc(-c2c(C3=NCCN3)nnn2-c2ccccc2)cc1`, the TGI in [1], in assay [2], in assay [3], in assay [4], in assay [5] and in assay [6] was > 100 µM throughout. Also, the TGI in assay [7], in assay [8], in assay [9] and in assay [10] was > 100 µM each time.
For the molecule `CC(=O)CC1CCC(=O)CCC(=O)OC(CC(C)=O)CCC(=O)CCC(=O)O1` (configuration not stated), the TGI in assay [1], in [2], in assay [3], in [4], in assay [5] and in [6] was > 100 µM in each case. In addition, the TGI in [8], in assay [9] and in assay [10] was > 100 µM throughout.
Turning to `COc1cc(OC)c(/C=C/c2ccc3ccccc3[n+]2C)c(OC)c1`, the GI50 was 0.697 µM in assay [1]; 0.951 µM in [2]; 0.686 µM in assay [3]; 1.14 µM in assay [4]; 0.507 µM in assay [5]; 0.549 µM in assay [6]. Moreover, the GI50 in assay [7] was 1.13 µM; in assay [8] it was 0.586 µM; in assay [9], 0.902 µM; in assay [10] it was 0.323 µM. In addition, the TGI was 6.49 µM in assay [1]; 4.51 µM in assay [2]; 12.2 µM in assay [3]; 6.25 µM in assay [4]; 6.48 µM in assay [5]; 4.25 µM in [6]. In addition, the TGI in [7] was 3.06 µM; in assay [8], 12.4 µM; in assay [9], 11.3 µM; in assay [10], 8.97 µM.
As for `C=CC(=O)N1CCCC(n2nc(-c3ccc(Oc4ccccc4)cc3)c3c(N)ncnc32)C1` (configuration not stated), the GI50 in [1] is 8.02 µM; in assay [2], 1.57 µM; in assay [3] it was 12.1 µM; in [4] it was 0.0578 µM; in assay [5], 6.56 µM; in assay [6] it was 7.71 µM. Also, the GI50 was 16 µM in assay [7], 3.55 µM in [8], 16.1 µM in [9] and 6.11 µM in assay [10]. Besides, the TGI in assay [1] amounted to 42.6 µM; in assay [2] it was 10.5 µM; in assay [3], 28.7 µM; in assay [4], 9.31 µM; in assay [5], 20.4 µM; in [6], 23.8 µM. In addition, the TGI was determined as 31.6 µM in assay [7], 14.2 µM in assay [8], 33.4 µM in assay [9] and 20.4 µM in [10].
On to `CC1=CSC2=NC(c3ccc(Cl)c(Cl)c3)=CC(c3ccc(Cl)cc3)N12` (configuration not stated), for which the GI50 in assay [1], in [2], in [3], in [4], in assay [5] and in assay [6] was > 100 µM throughout. The GI50 in [7] is > 100 µM; in [8], > 95.3 µM; in assay [9], > 100 µM; in [10], > 100 µM. In addition, the TGI in assay [1], in assay [2], in assay [3], in assay [4], in assay [5] and in [6] was > 100 µM in each case. The TGI in assay [7], in [8], in [9] and in assay [10] was > 100 µM in each case.
As for `COC(=O)CCC/C=C\C[C@H]1C=CC(=O)/C1=C/C[C@@H](O)CCc1cccc(C(F)(F)F)c1`, the GI50 in assay [1] is 1.09 µM; in [2], 3.1 µM; in assay [3], 2.03 µM; in assay [4] it was 2.02 µM; in assay [5], 3.31 µM; in assay [6] it was 2.12 µM. Further, the GI50 in assay [7] was 3.19 µM; in [8], 5.46 µM; in assay [9], 3.28 µM; in assay [10], 2.06 µM. Further, the TGI came out at 12 µM in assay [1]; 7.94 µM in assay [2]; 5.18 µM in [3]; 5.57 µM in assay [4]; 11.8 µM in [5]; 5.21 µM in [6]. For the same molecule, the TGI in [7] was found to be 11.5 µM; in [8], 18.9 µM; in [9], 10.6 µM; in assay [10], 4.96 µM.
`CCN(CC)CCC1CC/C(=C\c2ccc(OC)cc2)C1=O` (configuration not stated): the TGI in assay [1], in [2], in [4], in assay [5], in [6] and in [7] was > 100 µM each time. In addition, the TGI in assay [8], in assay [9] and in assay [10] was > 100 µM each time.
As to `CN1CCN(CCSC2Cc3cc(Cl)ccc3Sc3ccccc32)CC1` (configuration not stated), the TGI in assay [2] was found to be 12.4 µM; in [3], 23.6 µM; in [4], 12.8 µM; in assay [5], 19.4 µM; in [6] it was 15.6 µM; in assay [7], 3.75 µM. The results for the TGI in assay [8], in assay [9] and in assay [10] were 15.7 µM, 7.21 µM and 19.1 µM, respectively.
As for `C=CCn1c(C)nc2cc(Nc3nc(Nc4ccc5nc(C)n(CC=C)c5c4)c4ccccc4n3)ccc21`, the GI50 in assay [1] was 0.279 µM; in assay [2] it was 0.78 µM; in assay [3] it was 1.88 µM; in [4], 1.43 µM; in [5], 0.229 µM; in assay [6], 1.19 µM. Besides, in [8], the GI50 was 0.745 µM. In addition, the TGI in assay [1] was determined as 0.76 µM; in [2], 2.08 µM; in assay [3], 4.57 µM; in assay [4] it was 3.27 µM; in assay [5], 0.535 µM; in assay [6], 2.56 µM. Moreover, the TGI in assay [8] is 2.3 µM.
Regarding `CCN(CC)CCNc1c(OC)cc(C)c2sc3ccccc3c(=O)c12`, the TGI amounted to 32.2 µM in [2]; 29 µM in [3]; 20 µM in assay [4]; 26.1 µM in assay [5]; 14.4 µM in assay [6]; 27.9 µM in assay [7]. The TGI in assay [8] was determined as 28.7 µM; in assay [9], 17.9 µM; in [10], 16 µM.
Take `N#CCCc1nc2ccc(Br)cc2c(=O)n1CCO`: the TGI in assay [1], in assay [2], in assay [3], in [4], in [5] and in assay [6] was > 100 µM in each case. Besides, the TGI in assay [7], in [8] and in [9] was > 100 µM each time.
On to `COc1cc(OC2OC(C)C(O)C(O)C2O)cc2oc(-c3ccc(O)cc3)c(CC=C(C)C)c(=O)c12` (configuration not stated), for which the GI50 in [1] is 5.97 µM; in assay [2] it was 12.4 µM; in assay [3] it was 18.6 µM; in assay [4], 13 µM; in assay [5], 32.3 µM; in assay [6], 33.9 µM. Also, the figures for the GI50 in [7], in assay [8] and in [9] were 35.9 µM, 1.69 µM and 19.7 µM, respectively. In addition, the TGI in assay [1] is 31.8 µM; in [2] it was 54.8 µM; in assay [3], 47.4 µM; in assay [4] it was 39.8 µM; in assay [5], > 100 µM; in assay [6] it was > 100 µM. Further, the TGI in assay [7] is > 100 µM; in assay [8], 17.5 µM; in assay [9], 44 µM.
For `CCOC(=O)CCC(=O)C1c2cccc(O)c2C(=O)c2c(O)cccc21`, the TGI is 3.68 µM in assay [1]; 3.23 µM in assay [2]; 3.09 µM in assay [3]; 1.46 µM in assay [4]; 3.4 µM in [5]; 1.95 µM in [6]. Further, the TGI was found to be 2.33 µM in [8], 2.24 µM in assay [9] and 1.53 µM in assay [10].
Regarding `CC(=O)N/C(=C\c1ccc(/C=C(\NC(C)=O)c2nc3ccc(Cl)cc3[nH]2)cc1)c1nc2ccccc2[nH]1`, the TGI in assay [1], in assay [2], in assay [3], in assay [4], in assay [5] and in assay [7] was > 100 µM throughout. Besides, the TGI in assay [8], in assay [9] and in assay [10] was > 100 µM each time.
For `COc1cc2c(cc1OCc1ccccc1)N=C[C@@H]1C/C(=C/C(=O)NCCCN3C(=O)c4cccc5cccc(c45)C3=O)CN1C2=O`, the GI50 was 0.0548 µM in [1]; 0.724 µM in [2]; 0.352 µM in assay [3]; 0.228 µM in assay [4]; 1.22 µM in assay [5]; 0.63 µM in assay [6]. Moreover, the GI50 in assay [8] is 0.877 µM; in [9], 0.284 µM; in [10], 0.444 µM. In addition, the TGI is > 100 µM in assay [1]; 4.76 µM in assay [2]; 1.89 µM in [3]; 9.49 µM in [6]; 3.66 µM in [8]; 15.5 µM in assay [9]. In addition, in assay [10], the TGI is > 100 µM.
Regarding `O=[N+]([O-])c1c(/C=N/Nc2ccccc2)oc(-c2ccc3c(c2)OCO3)c1-c1ccc2c(c1)OCO2`, the TGI in assay [2] is > 100 µM; in assay [3], > 100 µM; in [4] it was > 100 µM; in [5], > 100 µM; in assay [6] it was > 100 µM; in [7], 24.2 µM. Also, the TGI in assay [8] and in assay [9] was > 100 µM each time.
Turning to `N#CC(C#N)=C(N)/C(C#N)=C\c1ccnc2ccccc12`, the TGI in [1] was found to be 10.3 µM; in assay [2], 88 µM; in [3], 40.5 µM; in [4], 89.1 µM; in assay [5] it was 55.7 µM; in assay [6], 80.4 µM. In addition, the TGI in [8] was 70.7 µM; in [9], 17.2 µM; in assay [10], 43.1 µM.
For the molecule `O=C(O)C1CCc2ccc3ccccc3c2C1c1cccc2ccccc12` (configuration not stated), the TGI in assay [1] came to 50.7 µM; in assay [2], 38.6 µM; in assay [4], 60 µM; in assay [5] it was 52.1 µM; in assay [6], 69.4 µM; in assay [7] it was 38.6 µM. The TGI is 90.1 µM in assay [8], > 100 µM in assay [9] and 33.8 µM in [10].
